From US8883841B2, “Oncogenic ras-specific cytotoxic compound and methods of use thereof” (The Board of Regents of the University of Texas System, priority 2005, dated 2014)
“Also recorded” adds a separate entry of the source.

Tests used:
H226B cells = assay: Cell viability, H226B lung cancer cells; format: cell-based, human; details: for IC50 (−LogM): H226B, Lung
A549 cells = assay: Cell viability, A549 lung cancer cells; format: cell-based, human
A549CK8 = assay: Cell viability, A549CK8 lung cancer cells; format: cell-based, human; details: A549CK8, Lung
Hct116 = assay: Cell viability, Hct116 colon cancer cells; format: cell-based, human
CT116P53 = assay: Cell viability, CT116P53 colon cancer cells; format: cell-based, human; details: CT116P53, Colon
HKE3 = assay: Cell viability, HKE3 colon cancer cells; format: cell-based, human; details: HKE3, Colon
H1299 cells = assay: Cell viability, H1299 lung cancer cells; format: cell-based, human
AsPC-1 = assay: Cell viability, AsPC-1 pancreatic cancer cells; format: cell-based, human
DLD1 = assay: Cell viability, DLD1 colon cancer cells; format: cell-based, human; details: DLD1, Colon
Heb46 = assay: Cell viability, Heb46 kidney cells; format: cell-based
Heb44 = assay: Cell viability, Heb44 kidney cells; format: cell-based
Capanc-1 = assay: Cell viability, Capanc-1 pancreatic cancer cells; format: cell-based, human
miapac = assay: Cell viability, miapac pancreatic cancer cells; format: cell-based, human; details: miapac, Pancrease
H2122 = assay: Cell viability, H2122 lung cancer cells; format: cell-based, human
H2009 = assay: Cell viability, H2009 lung cancer cells; format: cell-based, human; details: H2009, Lung
H23 = assay: Cell viability, H23 lung cancer cells; format: cell-based, human; details: H23, Lung
H1933 = assay: Cell viability, H1933 lung cancer cells; format: cell-based, human; details: H1933, Lung
H1395 = assay: Cell viability, H1395 lung cancer cells; format: cell-based, human
Ovcar3 = assay: Cell viability, Ovcar3 ovary cancer cells; format: cell-based
Ovca429 = assay: Cell viability, Ovca429 ovary cancer cells; format: cell-based
SKOV3 = assay: Cell viability, SKOV3 ovary cancer cells; format: cell-based

For `O=Cc1cn(Cc2ccc(Cl)cc2)c2ccccc12` [Oncrasin K001, 1H-Indole-3-carboxaldehyde, 1-[(4-chlorophenyl)methyl]-(9CI)], the “IC50 (−LogM)” value (H226B cells; first H226B line) was 7 −LogM, the “IC50 (−LogM)” value (H226B cells; second H226B line) was 5.6 −LogM and the IC50 (H226B cells; Ras status not known, read-out: IC50, H226B cells) was 1200 nM. For the same molecule, the “effect on H226b cells” value (H226B cells; ras status unknown) was “effective”, the “IC50 (−LogM)” value (A549 cells; A549, Lung) was >4.5 −LogM and the IC50 (A549 cells; K-Ras G12S, read-out: IC50, A549 cells) was 1580 nM. The “IC50 (−LogM)” value (A549CK8) was 5.8 −LogM, the IC50 (Hct116; G13D mutation in K-Ras, read-out: IC50, HCT116) was 3.1 µM and the “IC50 (−LogM)” value (Hct116; Hct116, Colon) was 5.5 −LogM. The “IC50 (−LogM)” value (CT116P53) was >4.5 −LogM, the “IC50 (−LogM)” value (HKE3; first HKE3 line) was 6.4 −LogM and the “IC50 (−LogM)” value (HKE3; second HKE3 line) was 6 −LogM. The “IC50 (−LogM)” value (H1299 cells; h1299, Lung) was >4.5 −LogM, the “effect on H1299 cells” value (H1299 cells; mutant N-Ras, listed as Oncrasin-1) was “minimal effect; also recorded: not effective” and the “IC50 (−LogM)” value (AsPC-1; ASPC1, Pancrease) was 5.5 −LogM. The IC50 (AsPC-1; K-Ras G12D mutation, read-out: IC50, AsPC-1) was 40 nM, the “IC50 (−LogM)” value (DLD1) was >4.5 −LogM and the “IC50 (−LogM)” value (Heb46) was 6.1 −LogM. The “IC50 (−LogM)” value (Heb44) was 8 −LogM, the IC50 (Capanc-1; K-Ras G12V mutation, read-out: IC50, Capanc-1) was 420 nM and the “IC50 (−LogM)” value (Capanc-1; capanc1, Pancrease) was 5 −LogM. The “IC50 (−LogM)” value (miapac) was >4.5 −LogM, the “IC50 (−LogM)” value (H2122; H2122, Lung) was 6.1 −LogM and the IC50 (H2122; K-Ras G12C, read-out: IC50, H2122) was 790 nM. The “effect on H212 cells” value (H2122; lung cancer cell line, G12C) was “highly effective”, the “IC50 (−LogM)” value (H2009) was >4.5 −LogM and the “IC50 (−LogM)” value (H23) was >4.5 −LogM. For the same molecule, the “IC50 (−LogM)” value (H1933) was >4.5 −LogM, the “IC50 (−LogM)” value (H1395; H1395, Lung) was >4.5 −LogM and the “effect on H1395 cells” value (H1395; wild-type Ras) was “minimal effect”. The “IC50 (−LogM)” value (Ovcar3) was 5.6 −LogM, the “IC50 (−LogM)” value (Ovca429) was 4.5 −LogM and the “IC50 (−LogM)” value (SKOV3) was 5.8 −LogM.
